Source: patent publication US20210309669A1, “Heterocyclic Spiro Compounds As MAGL Inhibitors” (Pfizer Inc., priority 2018, published 2021)

What was measured:
[1] = Dog intravenous pharmacokinetic study; type: in vivo, Male beagle dogs; details: male, beagle, IV dose of 1 mg/kg, plasma, read-out: Dog t1/2 (converted)
Procedure: The pharmacokinetic studies in dog were conducted at Pfizer Global Research and Development (Groton, Conn.). All in vivo studies were conducted in accordance with regulations and established guidelines using protocols reviewed and approved by the Pfizer Worldwide Research and Development (WRD, or other) Institutional Animal Care and Use Committee.
Male beagle dogs were fasted overnight with water provided ad libitium. The dogs were fed at approximately 2-4 h post-dose. The dogs (n=2) were administered an IV bolus via the cephalic vein. Compounds of Examples 1-3 were tested along with the following four comparative compounds.
All test compounds were administered an IV dose of 1 mg/kg of the specified compound which was delivered in a dose volume of 0.5 mL/kg. The dose solution was formulated in 10% PEG400/90% of 23% (w/v) HPBCD in de-ionized water for the following test compounds: Example 1, Example 2, and Example 3; in 20% SBECD (sulfobutyl either β-cyclodextrin) for Comparative-Compound 3; in 23% (w/v) HPBCD (hydroxypropyl β-cyclodextrin) in water for Comparative Compound 2; in 12.5.% SBECD in water with 0.25% 0.1N HCl to pH 5 for Comparative Compound 1. Serial blood samples were collected from each dog via the jugular vein prior to dose administration and at the following time points post-dose: 0.083, 0.25, 0.5, 1, 2, 4, 7, and 24 h for all compounds with an additional time point of 0.016 h collected for Comparative Compound 1 only. Blood samples were collected into tubes containing EDTA and placed on wet ice. Following centrifugation to afford plasma, the samples were transferred to polypropylene tubes and stored frozen at −20° C. to −80° C. until analysis.
All plasma samples were quantified via liquid chromatography/tandem mass spectrometry (LC/MS-MS) using multiple reaction monitoring with non-validated methods. The plasma standard curves were generated with species specific plasma. Pharmacokinetic parameters were determined by non-compartmental analysis using Watson LIMS software version 7.4 (Thermo Fisher Scientific, Waltham, Mass.). The area under the concentration versus time curve (AUC) was calculated from the first time point to the last time point with measurable drug concentration using a linear trapezoidal rule. The area under the concentration versus time curve from the first time point to time infinity (AUC(0-inf)) was calculated by extrapolation from the time point where the last measurable concentration occurred to time infinity by dividing the observed concentration at the last time point by the elimination rate constant determined using linear regression of plasma concentration versus time data. The plasma clearance (CLp) was calculated by the equation CLp=dose/AUC(0-inf). The elimination half-life (t½) was calculated using the following equation t1/2=ln 2/k; k is equal to the rate constant of elimination calculated by the least squares of the log transformed data.

[2] = In vitro intrinsic clearance in human liver microsomes (HLM); type: in vitro ADME; details: pH 7.4, 1 μM substrate, NADPH, 37° C., read-out: HLM CLint, app
Procedure: Test Compounds (Example 1-3 and Comparative-Compounds 1-4) were prepared as solutions in DMSO. The final concentration of DMSO in the incubation was <0.1% (v/v). […] (all final concentrations) in a 384-well plate. The reaction mixture was pre-warmed at 37° C. for 10 min prior to initiation of the incubation. The incubation was quenched with acetonitrile containing internal standards at the following time points: 1, 4, 7, 12, 20, 25, 45, and 60 min (individual incubation plates per time point) with a subsequent addition of water. The samples were vortexed followed by centrifugation and the supernatant was analyzed by LC/MS-MS using multiple reaction monitoring. For control experiments, NADPH was omitted from the incubations.
The microsomal t½ (min) was obtained from a log-linear plot of the substrate depletion versus incubation time and was scaled to hepatic intrinsic clearance (CLint,app (μL/min/mg protein) using the following equation: […]

[3] = Mouse subcutaneous neuropharmacokinetics study; type: in vivo, Male C57Bl6 mice; details: male, C57Bl6, mouse, brain (cerebellum homogenate) and plasma, sc, subcutaneous dose of 1 mg/kg, read-out: Mouse Cb,u/Cp,u
Procedure: The neuropharmacokinetics studies in mouse were conducted at Wuxi (Shanghai, China) with bioanalysis conducted at BioDuro (Beijing, China) with the exception of the Comparative-compound 3, which bioanalysis was conducted at Wuxi. All in vivo studies were conducted in accordance with regulations and established guidelines using protocols reviewed and approved by the Pfizer Worldwide Research and Development (WRD, or other) Institutional Animal Care and Use Committee.
Male C57Bl6 mice were maintained on a 12-h light/dark cycle in a temperature- and humidity-controlled environment with free access to food and water. The test compounds (Examples 1 and 2 and Comparative Compounds 1-3) were administered as a subcutaneous dose of 1 mg/kg which was delivered in a dose volume of 10 mL/kg. The dose solution for all compounds was formulated in 5% DMSO/5% cremophor/90% saline. Blood and brain samples were collected at 0.5, 1, 2, 4, 8, 12, and 24 h post-dose (n=3 per time point). Blood samples were collected into tubes containing sodium fluoride and 4-(2-aminoethyl)benzenesulfonyl fluoride hydrochloride (AEBSF; final concentration 2 mg/mL) to inhibit hydrolase activity and placed on wet ice. Following centrifugation to afford plasma, the samples were transferred to polypropylene tubes and stored frozen at −20° C. to −80° C. until analysis. Immediately following blood collection the mice were euthanized by cervical dislocation and the brains were removed. The cerebellum was immediately frozen in liquid nitrogen and stored at −80° C. until analysis.
Cerebellum samples were thawed, diluted 1:4 (w/v) with water, and homogenized using an H-speed dispersator. Standards and controls were prepared in a similar manner using a brain homogenate prepared from untreated animals. The plasma standard curves were generated with species specific plasma. All plasma and brain homogenate samples were quantified via LC/MS-MS using multiple reaction monitoring with non-validated methods.
Equilibrium dialysis using standard procedures [See Di et al., “Species independence in brain tissue binding using brain homogenates”; Drug Metab Dispos 39:1270-1277, 2011) were used for determination of the unbound fraction of the test compounds (Examples 1 and 2 and Comparative Compounds 1-3) in mouse plasma (fu,p; see Di et al., “impact of recovery on fraction unbound using equilibrium dialysis”; J Pharm Sci 101:1327-1335, 2012) and unbound fraction in rat brain homogenate (fu,b; see Di et al., “Species independence in brain tissue binding using brain homogenates”; Drug Metab Dispos 39:1270-1277, 2011). The determination of the unbound fraction in plasma also included the addition of AEBSF at a final concentration of 2 mg/mL to the incubation.
The pharmacokinetic parameters were computed by non-compartmental analysis using Watson Bioanalytical LIMS version 7.5. The AUC values were calculated using the linear trapezoidal method for both brain and plasma. Measured total plasma (Cp) and brain (Cb; assuming brain tissue density of 1 g/mL) concentrations were converted to unbound (free) values using the matrix specific binding factor (fu, p or fu,b) to determine free plasma (Cp,u) and free brain (Cb,u) values. All neurocompartmental ratios (Cb,u/Cp,u) were calculated through use of AUC values with the exception of Comparative Compounds 1 and 2 which used the mean of individual animal values due to insufficient data to calculate an AUC value.

[4] = In vitro intrinsic clearance in human hepatocytes; type: in vitro ADME; details: 1 μM substrate, human hepatocytes 0.5 million viable cells per mL, 37° C.
Procedure: Test Compounds (Example 1-3 and Comparative-Compounds 1-4) were prepared as solutions in DMSO at 3 mM which were then diluted in media containing WEM. The final concentration of DMSO in the incubation was 0.03% (v/v). The in vitro half-life (t½) of each compound was determined in incubations containing substrate (1 μM), human hepatocytes (0.5 million viable cells per mL final concentration) in media containing WEM, 50 mM HEPES buffer (pH 7.4), and 26 mM sodium bicarbonate at 37° C. (all final concentrations) in a 96-well plate. The reaction mixture was pre-warmed at 37° C. for 30 min prior to the initiation of the incubation. The incubation was quenched with acetonitrile containing internal standards at the following time points: 0, 5, 15, 30, 60, 120, and 240 min (individual incubation plates per time point). The samples were vortexed followed by centrifugation. An aliquot of supernatant was transferred to a clean 96-well plate and analyzed by LC/MS-MS using multiple reaction monitoring. For control experiments, hepatocytes were omitted from the incubations.
The hepatocyte t½ (min) was obtained from a log-linear plot of the substrate depletion versus incubation time and was scaled to hepatic intrinsic clearance (CLint,app (μL/min/million cells) using the following equation: […]

Q: For `CN([C@H]1COC2(CCN(C(=O)O[C@H](CO)C(F)(F)F)CC2)C1)S(=O)(=O)c1ccccc1` [Comparative-Compound 3, (2R)-1,1,1-trifluoro-3-hydroxypropan-2-yl (3R)-3-[methyl(phenylsulfonyl)-amino]-1-oxa-8-azaspiro[4.5]decane-8-carboxylate], which half-life [1] is on record?
A: 5 h

Q: What about the microsomal CLint at 1 μM [2] of the same compound?
A: 14.8 µL/min/mg

Q: What about the Kp,uu (unbound brain/unbound plasma ratio) [3] of the same compound?
A: 0.51

Q: And the “HHEPs CLint, app” value [4]?
A: 10.6 μL/min/million

Q: Which half-life [1] does the source give for `CN([C@H]1COC2(CCN(C(=O)O[C@H](CO)C(F)(F)F)CC2)C1)S(=O)(=O)CC1CC1` [Comparative-Compound 1, (2R)-1,1,1-trifluoro-3-hydroxypropan-2-yl (3R)-3-{[(cyclopropylmethyl)sulfonyl](methyl)amino}-1-oxa-8-azaspiro[4.5]decane-8-carboxylate] here?
A: 0.5 h

Q: And the microsomal CLint at 1 μM [2]?
A: < 12.5 µL/min/mg

Q: What about the Kp,uu (unbound brain/unbound plasma ratio) [3] of the same compound?
A: 0.18

Q: And the “HHEPs CLint, app” value [4]?
A: 5.5 μL/min/million

Q: For `CN([C@H]1COC2(CCN(C(=O)O[C@H](CO)C(F)(F)F)CC2)C1)S(=O)(=O)C1CC1` [Comparative-Compound 2, (2R)-1,1,1-trifluoro-3-hydroxypropan-2-yl (3R)-3-[(cyclopropylsulfonyl)-(methyl)amino]-1-oxa-8-azaspiro[4.5]decane-8-carboxylate], which half-life [1] is on record?
A: 1.31 h

Q: And the microsomal CLint at 1 μM [2]?
A: < 8 µL/min/mg

Q: And the Kp,uu (unbound brain/unbound plasma ratio) [3]?
A: 0.29

Q: And the “HHEPs CLint, app” value [4]?
A: <3.52 μL/min/million
